Measurements reported in US11005049B2, “Metal complexes” (priority 2013, dated 2021).
Where “and” joins values, the source holds several entries; their conditions need not be identical. Identical values can stand only once. Like-named read-outs stand apart in the source and are kept apart here.

Legend:
[1] = system: Salmonella typhimurium strain TA98; test: standardised AMES test, strain TA98; type: cell-based
Text: (§1) The solvent used is DMSO (dimethyl sulfoxide).

[2] = system: Salmonella typhimurium strain TA100
Experimental: Compounds V1 and E2 are subjected to a standardised AMES test (bacteria: Salmonella typhimurium; strains TA98, TA100 and TA102). […] The test is carried out by the person skilled in the art employing standard methods which are well known in the prior art. The solvent used is DMSO (dimethyl sulfoxide).
The test is carried out both without and also with metabolic activation using an S9 mix.

[3] = system: Salmonella typhimurium strain TA102; test: standardised AMES test, strain TA102; type: cell-based
[4] = system: Salmonella typhimurium; strains TA98, TA100 and TA102; test: standardised AMES test, overall mutagenicity finding; type: cell-based
Text: as §1

[5] = metabolic activation using S9 mix, 5 μg/plate
[6] = metabolic activation using S9 mix, 15.8 μg/plate
[7] = metabolic activation using S9 mix, 50 μg/plate
[8] = metabolic activation using S9 mix, 158 μg/plate
[9] = metabolic activation using S9 mix, 500 μg/plate
[10] = metabolic activation using S9 mix, 1580 μg/plate
[11] = metabolic activation using S9 mix, 5000 μg/plate
[12] = no metabolic activation, 5 μg/plate
[13] = no metabolic activation, 15.8 μg/plate
[14] = no metabolic activation, 50 μg/plate
[15] = no metabolic activation, 158 μg/plate
[16] = no metabolic activation, 500 μg/plate
[17] = no metabolic activation, 1580 μg/plate
[18] = no metabolic activation, 5000 μg/plate

CC(C)(C)c1ccc2cccc(O)c2n1.[Li] [Compound E2, lithium 2-tert-butyl-8-hydroxyquinoline]
Revertants/plate (mean ± SD) TA98 [1, 5]: 24 ± 6 Revertants/plate | Revertants/plate (mean ± SD) TA98 [1, 6]: 30 ± 2 Revertants/plate | Revertants/plate (mean ± SD) TA98 [1, 7]: 33 ± 4 Revertants/plate | Revertants/plate (mean ± SD) TA98 [1, 8]: 30 ± 3^S Revertants/plate | Revertants/plate (mean ± SD) TA98 [1, 9]: 25 ± 7^SB Revertants/plate | Revertants/plate (mean ± SD) TA98 [1, 10]: 18 ± 5^SB Revertants/plate | Revertants/plate (mean ± SD) TA98 [1, 11]: 13 ± 1^SE Revertants/plate | Revertants/plate (mean ± SD) TA98 [1, 12]: 23 ± 11 Revertants/plate | Revertants/plate (mean ± SD) TA98 [1, 13]: 29 ± 3 Revertants/plate | Revertants/plate (mean ± SD) TA98 [1, 14]: 18 ± 6 Revertants/plate | Revertants/plate (mean ± SD) TA98 [1, 15]: 20 ± 6^S Revertants/plate | Revertants/plate (mean ± SD) TA98 [1, 16]: 14 ± 8^SB Revertants/plate | Revertants/plate (mean ± SD) TA98 [1, 17]: 10 ± 4^SB Revertants/plate | Revertants/plate (mean ± SD) TA98 [1, 18]: 17 ± 6^SE Revertants/plate | Revertants/plate (mean ± SD) TA100 [2, 5]: 199 ± 4 Revertants/plate | Revertants/plate (mean ± SD) TA100 [2, 6]: 132 ± 11 Revertants/plate | Revertants/plate (mean ± SD) TA100 [2, 7]: 143 ± 8 Revertants/plate | Revertants/plate (mean ± SD) TA100 [2, 8]: 147 ± 8^S Revertants/plate | Revertants/plate (mean ± SD) TA100 [2, 9]: 108 ± 1^SB Revertants/plate | Revertants/plate (mean ± SD) TA100 [2, 10]: 57 ± 16 Revertants/plate | Revertants/plate (mean ± SD) TA100 [2, 11]: 4 ± 3 Revertants/plate | Revertants/plate (mean ± SD) TA100 [2, 12]: 142 ± 25 Revertants/plate | Revertants/plate (mean ± SD) TA100 [2, 13]: 133 ± 8 Revertants/plate | Revertants/plate (mean ± SD) TA100 [2, 14]: 104 ± 12 Revertants/plate | Revertants/plate (mean ± SD) TA100 [2, 15]: 103 ± 1^S Revertants/plate | Revertants/plate (mean ± SD) TA100 [2, 16]: 62 ± 17^SB Revertants/plate | Revertants/plate (mean ± SD) TA100 [2, 17]: 41 ± 2 Revertants/plate | Revertants/plate (mean ± SD) TA100 [2, 18]: 7 ± 3 Revertants/plate | Revertants/plate (mean ± SD) TA102 [3, 5]: 302 ± 18 Revertants/plate | Revertants/plate (mean ± SD) TA102 [3, 6]: 255 ± 8 Revertants/plate | Revertants/plate (mean ± SD) TA102 [3, 7]: 245 ± 22 Revertants/plate | Revertants/plate (mean ± SD) TA102 [3, 8]: 142 ± 22^S Revertants/plate | Revertants/plate (mean ± SD) TA102 [3, 9]: 89 ± 11^SB Revertants/plate | Revertants/plate (mean ± SD) TA102 [3, 10]: 62 ± 3^SB Revertants/plate | Revertants/plate (mean ± SD) TA102 [3, 11]: 37 ± 1^SE Revertants/plate | Revertants/plate (mean ± SD) TA102 [3, 12]: 224 ± 6 Revertants/plate | Revertants/plate (mean ± SD) TA102 [3, 13]: 217 ± 41 Revertants/plate | Revertants/plate (mean ± SD) TA102 [3, 14]: 237 ± 11 Revertants/plate | Revertants/plate (mean ± SD) TA102 [3, 15]: 180 ± 11^S Revertants/plate | Revertants/plate (mean ± SD) TA102 [3, 16]: 124 ± 1^SB Revertants/plate | Revertants/plate (mean ± SD) TA102 [3, 17]: 51 ± 18^SB Revertants/plate | Revertants/plate (mean ± SD) TA102 [3, 18]: 25 ± 1^SE Revertants/plate | mutagenic effect in AMES test ([4]; both without and with metabolic activation using an S9 mix): No mutagenic effect

Oc1cccc2cccnc12.[Li] [Liq, lithium 8-hydroxyquinoline, reference compound]
Revertants/plate (mean ± SD) TA98 [1, 5]: 31 ± 11 Revertants/plate | Revertants/plate (mean ± SD) TA98 [1, 6]: 40 ± 2 Revertants/plate | Revertants/plate (mean ± SD) TA98 [1, 7]: 87 ± 1 Revertants/plate | Revertants/plate (mean ± SD) TA98 [1, 8]: 100 ± 4 Revertants/plate | Revertants/plate (mean ± SD) TA98 [1, 12]: 23 ± 2 Revertants/plate | Revertants/plate (mean ± SD) TA98 [1, 13]: 20 ± 4 Revertants/plate | Revertants/plate (mean ± SD) TA98 [1, 14]: 22 ± 1 Revertants/plate | Revertants/plate (mean ± SD) TA102 [3, 5]: 559 ± 8 Revertants/plate | Revertants/plate (mean ± SD) TA102 [3, 6]: 697 ± 8 Revertants/plate | Revertants/plate (mean ± SD) TA102 [3, 7]: 1469 ± 27 Revertants/plate | Revertants/plate (mean ± SD) TA102 [3, 8]: 911 ± 269 Revertants/plate | Revertants/plate (mean ± SD) TA102 [3, 12]: 344 ± 33 Revertants/plate | Revertants/plate (mean ± SD) TA102 [3, 13]: 270 ± 30 Revertants/plate | Revertants/plate (mean ± SD) TA102 [3, 14]: 257 ± 59 Revertants/plate | mutagenicity in AMES test ([4]; all three bacteria strains, in the presence of metabolic activation): significant mutagenicity

[N-]=[N+]=[N-] [NaN3, sodium azide, reference compound]
Revertants/plate (mean ± SD) TA100 ([2]; no metabolic activation, 2 μg/plate, reference): 1090 ± 35 Revertants/plate and 743 ± 52 Revertants/plate
